{"source": "patent US8115015B2", "about": "(Cadila Healthcare Limited, priority 2009, dated 2012)", "test": "Stability of Atorvastatin Calcium Amorphous (related substances by HPLC on storage)", "type": "physicochemical", "key": {"[1]": {"details": "25° ± 2° C./RH 60 ± 5%, 1 Month"}, "[2]": {"details": "25° ± 2° C./RH 60 ± 5%, 2 Months"}, "[3]": {"details": "25° ± 2° C./RH 60 ± 5%, 3 months"}, "[4]": {"details": "25° ± 2° C./RH 60 ± 5%, 6 Months"}, "[5]": {"details": "25° ± 2° C./RH 60 ± 5%, 6 Months, listed as stable amorphous atrovastatin calcium"}, "[6]": {"details": "25°±2° C./RH 60±5% for 6 months"}, "[7]": {"details": "Cold (5° C.) 2° to 8° C., 1 Month"}, "[8]": {"details": "Cold (5° C.) 2° to 8° C., 2 Months"}, "[9]": {"details": "Cold (5° C.) 2° to 8° C., 3 months"}, "[10]": {"details": "Cold (5° C.) 2° to 8° C., 6 Months"}, "[11]": {"details": "Cold (5° C.) 2° to 8° C., 6 Months, listed as stable amorphous atrovastatin calcium"}}, "data": [{"substance": "hemi-calcium salt of (3R, 5R) 7-[3-phenyl-4-phenylcarbamoyl-2-(4-fluorophenyl)-5-isopropyl-pyrrol-1-yl]-3,5-dihydroxyheptanoic acid [Atorvastatin Calcium Amorphous]", "values": [{"measurement": "single individual unknown impurities, area percentage of HPLC", "setting": "20 to 8° C. under cold (5° C.) condition for 6 months", "value": "< 0.1", "unit": "%"}, {"measurement": "Related Substance by HPLC: 3-O-Methyl Atorvastatin Calcium", "setting": "[1]", "value": 0.02, "unit": "%"}, {"measurement": "Related Substance by HPLC: Atorvastatin Desflouro Calcium", "setting": "[1]", "value": 0.05, "unit": "%"}, {"measurement": "Related Substance by HPLC: Atorvastatin Diasteroisomer", "setting": "[1]", "value": 0.08, "unit": "%"}, {"measurement": "Related Substance by HPLC: Atorvastatin Lactone", "setting": "[1]", "value": 0.07, "unit": "%"}, {"measurement": "Related Substance by HPLC: 3-O-Methyl Atorvastatin Calcium", "setting": "[2]", "value": 0.03}, {"measurement": "Related Substance by HPLC: Atorvastatin Desflouro Calcium", "setting": "[2]", "value": 0.06, "unit": "%"}, {"measurement": "Related Substance by HPLC: Atorvastatin Diasteroisomer", "setting": "[2]", "value": 0.10, "unit": "%"}, {"measurement": "Related Substance by HPLC: Atorvastatin Lactone", "setting": "[2]", "value": 0.05, "unit": "%"}, {"measurement": "Related Substance by HPLC: 3-O-Methyl Atorvastatin Calcium", "setting": "[3]", "value": 0.03, "unit": "%"}, {"measurement": "Related Substance by HPLC: Atorvastatin Desflouro Calcium", "setting": "[3]", "value": 0.06, "unit": "%"}, {"measurement": "Related Substance by HPLC: Atorvastatin Diasteroisomer", "setting": "[3]", "value": 0.12, "unit": "%"}, {"measurement": "Related Substance by HPLC: Atorvastatin Lactone", "setting": "[3]", "value": 0.04, "unit": "%"}, {"measurement": "Related Substance by HPLC: 3-O-Methyl Atorvastatin Calcium", "setting": "[4]", "value": 0.03, "unit": "%"}, {"measurement": "Related Substance by HPLC: Atorvastatin Desflouro Calcium", "setting": "[4]", "value": 0.06, "unit": "%"}, {"measurement": "Related Substance by HPLC: Atorvastatin Diasteroisomer", "setting": "[4]", "value": 0.11, "unit": "%"}, {"measurement": "Related Substance by HPLC: Atorvastatin Lactone", "setting": "[4]", "value": 0.05, "unit": "%"}, {"measurement": "Related Substance by HPLC: Atorvastatin diol methyl ester", "setting": "[4]", "value": "less than 0.1%"}, {"measurement": "Related Substance by HPLC: Atorvastatin protected diol", "setting": "[4]", "value": "less than 0.1%"}, {"measurement": "Related Substance by HPLC: t-butyl diol ester", "setting": "[4]", "value": "less than 0.1%"}, {"measurement": "Related Substance by HPLC: 3-O-Methyl Atorvastatin Calcium", "setting": "[5]", "value": "less than 0.1%"}, {"measurement": "Related Substance by HPLC: Atorvastatin Desflouro Calcium", "setting": "[5]", "value": "less than 0.1%"}, {"measurement": "Related Substance by HPLC: Atorvastatin Diasteroisomer", "setting": "[5]", "value": "less than 0.1%"}, {"measurement": "Related Substance by HPLC: Atorvastatin Lactone", "setting": "[5]", "value": "less than 0.1%"}, {"measurement": "single individual known impurities, area percentage of HPLC", "setting": "[6]", "value": "less than 0.15%"}, {"measurement": "single individual unknown impurities, area percentage of HPLC", "setting": "[6]", "value": "less than 0.1%"}, {"measurement": "Related Substance by HPLC: 3-O-Methyl Atorvastatin Calcium", "setting": "[7]", "value": 0.03, "unit": "%"}, {"measurement": "Related Substance by HPLC: Atorvastatin Desflouro Calcium", "setting": "[7]", "value": 0.06, "unit": "%"}, {"measurement": "Related Substance by HPLC: Atorvastatin Diasteroisomer", "setting": "[7]", "value": 0.08, "unit": "%"}, {"measurement": "Related Substance by HPLC: Atorvastatin Lactone", "setting": "[7]", "value": 0.08, "unit": "%"}, {"measurement": "Related Substance by HPLC: 3-O-Methyl Atorvastatin Calcium", "setting": "[8]", "value": 0.03, "unit": "%"}, {"measurement": "Related Substance by HPLC: Atorvastatin Desflouro Calcium", "setting": "[8]", "value": 0.07, "unit": "%"}, {"measurement": "Related Substance by HPLC: Atorvastatin Diasteroisomer", "setting": "[8]", "value": 0.09, "unit": "%"}, {"measurement": "Related Substance by HPLC: Atorvastatin Lactone", "setting": "[8]", "value": 0.04, "unit": "%"}, {"measurement": "Related Substance by HPLC: 3-O-Methyl Atorvastatin Calcium", "setting": "[9]", "value": 0.03, "unit": "%"}, {"measurement": "Related Substance by HPLC: Atorvastatin Desflouro Calcium", "setting": "[9]", "value": 0.07, "unit": "%"}, {"measurement": "Related Substance by HPLC: Atorvastatin Diasteroisomer", "setting": "[9]", "value": 0.10, "unit": "%"}, {"measurement": "Related Substance by HPLC: Atorvastatin Lactone", "setting": "[9]", "value": 0.05, "unit": "%"}, {"measurement": "Related Substance by HPLC: 3-O-Methyl Atorvastatin Calcium", "setting": "[10]", "value": 0.03, "unit": "%"}, {"measurement": "Related Substance by HPLC: Atorvastatin Desflouro Calcium", "setting": "[10]", "value": 0.05, "unit": "%"}, {"measurement": "Related Substance by HPLC: Atorvastatin Diasteroisomer", "setting": "[10]", "value": 0.08, "unit": "%"}, {"measurement": "Related Substance by HPLC: Atorvastatin Lactone", "setting": "[10]", "value": 0.06, "unit": "%"}, {"measurement": "Related Substance by HPLC: Atorvastatin diol methyl ester", "setting": "[10]", "value": "less than 0.1%"}, {"measurement": "Related Substance by HPLC: Atorvastatin protected diol", "setting": "[10]", "value": "less than 0.1%"}, {"measurement": "Related Substance by HPLC: t-butyl diol ester", "setting": "[10]", "value": "less than 0.1%"}, {"measurement": "Related Substance by HPLC: 3-O-Methyl Atorvastatin Calcium", "setting": "[11]", "value": "less than 0.1%"}, {"measurement": "Related Substance by HPLC: Atorvastatin Desflouro Calcium", "setting": "[11]", "value": "less than 0.1%"}, {"measurement": "Related Substance by HPLC: Atorvastatin Diasteroisomer", "setting": "[11]", "value": "less than 0.1%"}, {"measurement": "Related Substance by HPLC: Atorvastatin Lactone", "setting": "[11]", "value": "less than 0.1%"}, {"measurement": "Related Substance by HPLC: 3-O-Methyl Atorvastatin Calcium", "setting": "Initial", "value": 0.02, "unit": "%"}, {"measurement": "Related Substance by HPLC: Atorvastatin Desflouro Calcium", "setting": "Initial", "value": 0.06, "unit": "%"}, {"measurement": "Related Substance by HPLC: Atorvastatin Diasteroisomer", "setting": "Initial", "value": 0.07, "unit": "%"}, {"measurement": "Related Substance by HPLC: Atorvastatin Lactone", "setting": "Initial", "value": 0.09, "unit": "%"}, {"measurement": "Related Substance by HPLC: Atorvastatin protected diol", "setting": "Initial", "value": 0.01, "unit": "%"}, {"measurement": "single individual known impurities, area percentage of HPLC", "setting": "cold (5° C.) condition for 6 months", "value": "less than 0.15%"}]}]}
